Source: patent US20100305093A1, “Inhibitors of mTOR and Methods of Making and Using” (EXELIXIS, INC., priority 2009, published 2010)

Each molecule was assayed against mTOR/GbL/Raptor (mTORC1) (Homo sapiens, UniProt P42345) (assay: mTOR/GbL/Raptor (mTORC1) ELISA assay, phosphorylation of 4E-BP1). Conditions: 0.2 nM mTORC1, 10 μM ATP, 50 nM NHis-tagged 4E-BP1; read-out: Activity in mTOR/GbL/Raptor ELISA Assay.
Format: biochemical
Procedure: mTOR/GbL/Raptor (mTORC1) ELISA Assay
The measurement of mTORC1 enzyme activity was performed in an ELISA assay format following the phosphorylation of 4E-BP1 protein. All experiments were performed in the 384-well format. Generally, 0.5 μL DMSO containing varying concentrations of the test compound was mixed with 15 μL enzyme solution. Kinase reactions were initiated with the addition of 15 μL of substrates-containing solution. The assay conditions were as follows; 0.2 nM mTORC1, 10 μM ATP and 50 nM NHis-tagged 4E-BP1 in 20 mM Hepes, pH 7.2, 1 mM DTT, 50 mM NaCl, 10 mM MnCl2, 0.02 mg/mL BSA, 0.01% CHAPS, 50 mM β-glycerophosphate. Following an incubation of 120 minutes at ambient temperature, 20 μL of the reaction volume was transferred to a Ni-Chelate-coated 384-well plate. The binding step of the 4E-BP1 protein proceeded for 60 minutes, followed by washing 4 times each with 50 μL of Tris-buffered saline solution (TBS). Anti-phospho-4E-BP1 rabbit-IgG (20 μL, 1:5000) in 5% BSA-TBST (0.2% Tween-20 in TBS) was added and further incubated for 60 minutes. Incubation with a secondary HRP-tagged anti-IgG was similarly performed after washing off the primary antibody (4 washes of 50 μL). Following the final wash step with TBST, 20 μL of SuperSignal ELISA Femto (Pierce Biotechnology) was added and the luminescence measured using an EnVision plate reader.

| IC50 [nM] | SMILES |
| --- | --- |
| 3 | O=C(c1ccc(C(O)(O)C(F)(F)F)cc1)N1CCOc2ccc(-c3ccc(-c4ncc[nH]4)cc3)cc2C1 [2,2,2-trifluoro-1-[4-({7-[4-(1H-imidazol-2-yl)phenyl]-2,3-dihydro-1,4-benzoxazepin-4(5H)-yl}carbonyl)phenyl]ethane-1,1-diol] |
| 6.6 | Nc1ccc(-c2ccc3c(c2)CN(C(=O)c2ccc(S(N)(=O)=O)cc2)CCO3)cn1 [4-{[7-(6-aminopyridin-3-yl)-2,3-dihydro-1,4-benzoxazepin-4(5H)-yl]carbonyl}benzenesulfonamide] |
| 6.3 | O=C(c1ccc(-c2csnn2)cc1)N1CCOc2ccc(-c3ccc4cn[nH]c4c3)cc2C1 [7-(1H-indazol-6-yl)-4-{[4-(1,2,3-thiadiazol-4-yl)phenyl]carbonyl}-2,3,4,5-tetrahydro-1,4-benzoxazepine] |

The next lines start with the molecule.

| SMILES | IC50 [nM] |
| --- | --- |
| CCc1c(C(=O)N2CCOc3ccc(-c4ccc(NC(=O)N(C)C)cc4)cc3C2)ccc(S(C)(=O)=O)c1F [3-[4-(4-{[2-ethyl-3-fluoro-4-(methylsulfonyl)phenyl]carbonyl}-2,3,4,5-tetrahydro-1,4-benzoxazepin-7-yl)phenyl]-1,1-dimethylurea] | 14.4 |
| CCc1c(C(=O)N2CCOc3ccc(-c4ccc(C(=O)NC)c(F)c4)cc3C2)ccc(S(C)(=O)=O)c1F [4-(4-{[2-ethyl-3-fluoro-4-(methylsulfonyl)phenyl]carbonyl}-2,3,4,5-tetrahydro-1,4-benzoxazepin-7-yl)-2-fluoro-N-methylbenzamide] | 11.9 |
| Cc1nc2ccc(-c3ccc4c(c3)CN(C(=O)c3ccc5c(c3)CCS5(=O)=O)CCO4)cc2[nH]1 [4-[(1,1-dioxido-2,3-dihydro-1-benzothien-5-yl)carbonyl]-7-(2-methyl-1H-benzimidazol-6-yl)-2,3,4,5-tetrahydro-1,4-benzoxazepine] | 4.8 |
| Cc1nc2ccc(-c3ccc4c(c3)CN(C(=O)c3cc5nc(C)sc5n3C)CCO4)cc2[nH]1 [4-[(2,4-dimethyl-4H-pyrrolo[3,2-d][1,3]thiazol-5-yl)carbonyl]-7-(2-methyl-1H-benzimidazol-6-yl)-2,3,4,5-tetrahydro-1,4-benzoxazepine] | 17.2 |
| CCn1c(C(=O)N2CCOc3ccc(-c4ccc5nc(C)[nH]c5c4)cc3C2)c(Cl)c2ccccc21 [4-[(3-chloro-1-ethyl-1H-indol-2-yl)carbonyl]-7-(2-methyl-1H-benzimidazol-6-yl)-2,3,4,5-tetrahydro-1,4-benzoxazepine] | 9.5 |
| COc1ccc(OC)c(S(=O)(=O)c2ccc(C(=O)N3CCOc4ccc(-c5ccc6nc(C)[nH]c6c5)cc4C3)cc2)c1 [4-[(4-{[2,5-bis(methyloxy)phenyl]sulfonyl}phenyl)carbonyl]-7-(2-methyl-1H-benzimidazol-6-yl)-2,3,4,5-tetrahydro-1,4-benzoxazepine] | 3.2 |
| CCc1c(C(=O)N2CCOc3ccc(-c4ccc(-c5nc6ccc(C)cc6[nH]5)cc4)cc3C2)ccc(S(C)(=O)=O)c1F [4-{[2-ethyl-3-fluoro-4-(methylsulfonyl)phenyl]carbonyl}-7-[4-(6-methyl-1H-benzimidazol-2-yl)phenyl]-2,3,4,5-tetrahydro-1,4-benzoxazepine] | 6 |
| CC(C)NS(=O)(=O)c1ccc(C(=O)N2CCOc3ccc(-c4ccc5nc[nH]c5c4)cc3C2)c(Br)c1 [4-{[7-(1H-benzimidazol-6-yl)-2,3-dihydro-1,4-benzoxazepin-4(5H)-yl]carbonyl}-3-bromo-N-(1-methylethyl)benzenesulfonamide] | 5.6 |
| Cc1ccc(C(=O)N2CCOc3ccc(-c4ccc5nc[nH]c5c4)cc3C2)c(C)c1 [7-(1H-benzimidazol-6-yl)-4-[(2,4-dimethylphenyl)carbonyl]-2,3,4,5-tetrahydro-1,4-benzoxazepine] | 6.4 |
| Cc1nc2ccc(-c3ccc4c(c3)CN(C(=O)c3ccc(S(=O)(=O)N5CCN(C)CC5)cc3)CCO4)cc2[nH]1 [7-(2-methyl-1H-benzimidazol-6-yl)-4-({4-[(4-methylpiperazin-1-yl)sulfonyl]phenyl}carbonyl)-2,3,4,5-tetrahydro-1,4-benzoxazepine] | 8.6 |
| Cc1nc2ccc(-c3ccc4c(c3)CN(C(=O)c3cc(S(=O)(=O)N5CCCC5)cn3C)CCO4)cc2[nH]1 [7-(2-methyl-1H-benzimidazol-6-yl)-4-{[1-methyl-4-(pyrrolidin-1-ylsulfonyl)-1H-pyrrol-2-yl]carbonyl}-2,3,4,5-tetrahydro-1,4-benzoxazepine] | 7.1 |
| CCc1c(C(=O)N2CCOc3ccc(-c4ccc(C(=O)NCC5CNC5)cc4)cc3C2)ccc(S(C)(=O)=O)c1F [N-(azetidin-3-ylmethyl)-4-(4-{[2-ethyl-3-fluoro-4-(methylsulfonyl)phenyl]carbonyl}-2,3,4,5-tetrahydro-1,4-benzoxazepin-7-yl)benzamide] | 9.9 |
| CCc1c(C(=O)N2CCOc3ccc(-c4cnc(NCCNC)s4)cc3C2)ccc(S(C)(=O)=O)c1F [N-[5-(4-{[2-ethyl-3-fluoro-4-(methylsulfonyl)phenyl]carbonyl}-2,3,4,5-tetrahydro-1,4-benzoxazepin-7-yl)-1,3-thiazol-2-yl]-N′-methylethane-1,2-diamine] | 5.3 |

Same assay, conditions: 0.2 nM mTORC1, 10 μM ATP, 50 nM NHis-tagged 4E-BP1; read-out: activity in mTOR/GbL/Raptor (mTORC1) ELISA assay, activity bands by Table 1 compound number

| IC50 [nM] | SMILES |
| --- | --- |
| ≤ 10 | CCS(=O)(=O)c1ccc(C(=O)N2CCOc3ccc(-c4ccc(N)nc4)cc3C2)c(C)c1F [Example 566, 5-(4-{[4-(ethylsulfonyl)-3-fluoro-2-methylphenyl]carbonyl}-2,3,4,5-tetrahydro-1,4-benzoxazepin-7-yl)pyridin-2-amine] |
| 10 to 100 | O=C(c1ccc(C(=O)C(F)(F)F)cc1)N1CCOc2ccc(-c3cccnc3)cc2C1 [Example 884, 2,2,2-trifluoro-1-{4-[(7-pyridin-3-yl-2,3-dihydro-1,4-benzoxazepin-4(5H)-yl)carbonyl]phenyl}ethanone] |
| 10 to 100 | COc1ccc(-c2ccc3c(c2)CN(C(=O)c2ccc(S(N)(=O)=O)cc2)CCO3)cn1 [Example 885, 4-({7-[6-(methyloxy)pyridin-3-yl]-2,3-dihydro-1,4-benzoxazepin-4(5H)-yl}carbonyl)benzenesulfonamide] |
| 100 to 500 | COc1ccc(-c2ccc3c(c2)CN(C(=O)c2ccc(S(C)(=O)=O)cc2)CCO3)cn1 [Example 886, 7-[6-(methyloxy)pyridin-3-yl]-4-{[4-(methylsulfonyl)phenyl]carbonyl}-2,3,4,5-tetrahydro-1,4-benzoxazepine] |
| 10 to 100 | COc1ccc(-c2ccc3c(c2)CN(C(=O)c2ccc(C(=O)C(F)(F)F)cc2)CCO3)cn1 [Example 887, 2,2,2-trifluoro-1-[4-({7-[6-(methyloxy)pyridin-3-yl]-2,3-dihydro-1,4-benzoxazepin-4(5H)-yl}carbonyl)phenyl]ethanone] |
| 10 to 100 | CS(=O)(=O)c1ccc(C(=O)N2CCOc3ccc(-c4ccc(N)nc4)cc3C2)cc1 [Example 888, 5-(4-{[4-(methylsulfonyl)phenyl]carbonyl}-2,3,4,5-tetrahydro-1,4-benzoxazepin-7-yl)pyridin-2-amine] |
